In brackets after ≈: the same amount, converted by molar mass.
conditions: buffer; pH 7.4; 200.0 µM

solubility kinetic	SMILES
> 47.5 µg/mL	COc1ccc(CCNC(=O)CCNC(=O)c2ccco2)cc1
39.5 µg/mL (≈ 131 µM)	COc1ccc(NC(=O)COc2ccc3c(c2)OCO3)cc1
> 35.9 µg/mL	Nc1ncnc2c1ncn2CCc1ccccc1
> 44.4 µg/mL	O=C(Nc1cc(C(F)(F)F)ccc1-n1cncn1)C1CC1
13 µg/mL (≈ 37.4 µM)	CCOC(=O)C1CCCN(S(=O)(=O)c2ccc3ccccc3c2)C1 (stereo not drawn)
37.2 µg/mL (≈ 110 µM)	COc1ccccc1OCCNC(=O)C(=O)c1c[nH]c2ccccc12
0.9 µg/mL (≈ 2.41 µM)	O=S(=O)(Nc1cccc(-c2nc3cccnc3s2)c1)c1cccs1
17.3 µg/mL (≈ 66.5 µM)	ClCC1CN(Cc2ccccc2Cl)CCO1 (stereo not drawn)
> 44.9 µg/mL	COc1c(C)cccc1C(=O)NCc1ccc2c(c1)OCO2
> 64.1 µg/mL	O=C(COc1ccc(Br)cc1F)NCC1(N2CCCCC2)CCCCC1
> 51.1 µg/mL	COc1ccc2cc(C(C)C(=O)N3CCC(C(N)=O)CC3)ccc2c1 (stereo not drawn)
0.6 µg/mL (≈ 1.72 µM)	Nc1nc(NCC2CCCO2)nc(Nc2ccccc2F)c1[N+](=O)[O-] (stereo not drawn)
11.1 µg/mL (≈ 32.1 µM)	COC(=O)c1c(-c2cccc(C)c2)csc1NC(=O)C1CCCO1 (stereo not drawn)
13.5 µg/mL (≈ 47.6 µM)	Fc1cccc(CN2CCC(Cc3ccccc3)CC2)c1
> 53.6 µg/mL	CCOc1ccc(NC(=O)CN(C)C(=O)c2ccncc2)cc1OCC
51.8 µg/mL (≈ 147 µM)	O=C(NCCCNC(=O)c1ccc(Cl)cc1Cl)c1ccccn1
> 56.9 µg/mL	CC(=O)NC(CC(=O)N(C)Cc1cccc(Cl)c1Cl)c1ccccc1 (stereo not drawn)
> 36.6 µg/mL	Cn1c(N2CCOCC2)c(C=O)c2ccccc21
9.4 µg/mL (≈ 32.7 µM)	CCCCCn1c(C)c2c(OCC)cccc(=O)c2c1C
50.2 µg/mL (≈ 146 µM)	Cc1cc(=O)oc2cc(NC(=O)CC3(CC(=O)O)CCCC3)ccc12
4.1 µg/mL (≈ 16.3 µM)	Cc1cc(NC(=O)CN(C)C)c([N+](=O)[O-])cc1C
2.2 µg/mL (≈ 7.09 µM)	CC(=O)c1c[nH]c(C(=O)NCc2cccc(C(F)(F)F)c2)c1
0.3 µg/mL (≈ 1.12 µM)	Cc1cccc(Nc2nc(-c3ccccc3)cs2)n1
> 42.1 µg/mL	CN1CCN(C(=O)c2ccc(-c3ccccc3)cc2)CC1
> 43 µg/mL	Cc1csc(SC(C)C(=O)NCC2CCCO2)n1 (stereo not drawn)

solubility kinetic	SMILES
> 38.3 µg/mL	CCc1noc(C)c1C(=O)Nc1ccc(C#N)cc1
35 µg/mL (≈ 148 µM)	O=c1o[nH]c(-c2ccccc2)c1-c1ccccc1
> 48.5 µg/mL	CCN(C(=O)CSc1ncccn1)c1cccc2ccccc12
> 49.9 µg/mL	CCOCCCNC(=O)C1CC(=O)N(CCc2ccc(C)cc2)C1 (stereo not drawn)
> 37.1 µg/mL	O=C(O)C1CCN(C(=O)Cc2ccccc2)CC1
> 61 µg/mL	CC1=CCC(C(=O)O)C(C(=O)Nc2ccc(-c3nc4ccc(C)cc4s3)cc2)C1 (stereo not drawn)
2.5 µg/mL (≈ 7.67 µM)	COc1nc(NCCO)nc(Nc2cc(Cl)ccc2OC)n1
> 56 µg/mL	O=C(COc1ccc(F)cc1Br)NCCCN1CCCC1=O
48.3 µg/mL (≈ 149 µM)	Cc1c(C)n(CCc2ccccc2)c2ncnc(NCCCO)c12
31.7 µg/mL (≈ 142 µM)	O=C(O)COCc1nc2ccccc2s1
1.2 µg/mL (≈ 3.51 µM)	O=C(Nc1ccc2c(c1)OCCO2)C1CC(c2ccc(F)cc2)=NO1 (stereo not drawn)
> 41 µg/mL	COC1=C(N2CCOCC2)C(=O)c2ccccc2C1=O
35.5 µg/mL	Cc1cccc(C)c1OCCCN1CCOCC1.Cl
32.3 µg/mL (≈ 123 µM)	Cc1ccc(OCCCCCN2CCOCC2)cc1
< 0.3 µg/mL	COc1cccc(OC)c1OC(=O)c1cnccn1
> 41.9 µg/mL	Cc1sc(NC(=O)CN2CCOCC2)c(C#N)c1C
12.1 µg/mL (≈ 58.3 µM)	Cc1[nH]c2ccccc2c1C(=O)CCl
> 42.5 µg/mL	O=C(CSc1nncs1)NCc1ccc(F)cc1
14.4 µg/mL (≈ 45.8 µM)	Cc1cc(NC(=O)CS(=O)(=O)c2ccc(Cl)cc2)no1
> 44.4 µg/mL	O=C(COc1cccc(C(F)(F)F)c1)Nc1cccnc1
25.6 µg/mL (≈ 95.4 µM)	Cc1ccc(C)n1-c1ccc(C(=O)/C=C/N(C)C)cc1
6.1 µg/mL (≈ 21.1 µM)	CN(C)c1ccc(C2Nc3cccc4cccc(c34)N2)cc1
1 µg/mL (≈ 3.66 µM)	O=C(Nc1ccc(-c2ccccc2)cc1)c1ccccc1
38.7 µg/mL (≈ 124 µM)	O=C(Nc1c(-c2ccccc2)nc2ccccn12)c1ccccc1
29 µg/mL (≈ 126 µM)	COc1ccc(OC)c2nc3c(cc12)CCC3

solubility kinetic	SMILES
> 47.6 µg/mL	CCCCCOc1ccc(C(=O)CCC(=O)N2CCCC2)cc1
> 20.6 µg/mL	Cl.NC1(C(=O)O)CC1
9.1 µg/mL (≈ 28.9 µM)	Cc1cc(NC(=O)C(C)Oc2ccc(Cl)cc2Cl)no1 (stereo not drawn)
41.5 µg/mL (≈ 123 µM)	O=C(NCc1ccco1)/C(=C/c1ccco1)NC(=O)c1ccccc1
1.6 µg/mL (≈ 4.45 µM)	CCOC(=O)NC(=S)Nc1ccc(C(C)(C)C)cc1Br
10.1 µg/mL (≈ 32.9 µM)	COCCN(C/C=C/c1ccccc1)C/C=C/c1ccccc1
34.8 µg/mL (≈ 143 µM)	O=C(O)c1cncc(C#CCC2CCCCC2)c1
> 48.8 µg/mL	O=C(c1ccccc1)c1ccc(OCC(=O)N2CCOCC2)cc1
> 38.4 µg/mL	Cc1cc(C)nc(-n2ncc3c2CC(C)CC3=O)n1 (stereo not drawn)
> 39.6 µg/mL	O=C(Cn1cncn1)N/N=C/c1ccccc1Cl
42.2 µg/mL (≈ 142 µM)	COc1ccc2[nH]cc(CCn3ccc(=O)c(C)c3C)c2c1
33.5 µg/mL (≈ 92.7 µM)	COc1ccc(OCCC(=O)OCC(=O)NCc2ccc(F)cc2)cc1
> 43.2 µg/mL	CCOC(=O)C(=CNc1ccc(C#N)cc1)C(=O)OCC
16.7 µg/mL (≈ 50.9 µM)	Cc1ccnc(N2CCC(C(=O)NCc3ccc(F)cc3)CC2)n1
8.5 µg/mL	CCOc1ccc(-c2nc(CCl)cs2)cc1.Cl
> 45.5 µg/mL	CCNC(=O)CN1C(=O)NC2(CCOc3ccccc32)C1=O (stereo not drawn)
> 40.8 µg/mL	O=C(O)c1nn(-c2ccccc2C(F)(F)F)cc1O
> 43.6 µg/mL	COc1ccccc1CNC(=O)C1CCC(=O)N1C(C)C (stereo not drawn)
> 46.6 µg/mL	CCCc1cnc(N2CCN(C(=O)c3ccccc3)CC2)nc1
50.4 µg/mL (≈ 147 µM)	COC(=O)Nc1ccc(S(=O)(=O)N2CCCC(C(=O)O)C2)cc1 (stereo not drawn)
> 35.8 µg/mL	CC1CCCCN1C(=S)NCc1ccco1 (stereo not drawn)
> 43.8 µg/mL	CC(=O)N1CCN(c2ccc(C(N)=O)cc2[N+](=O)[O-])CC1
> 31.4 µg/mL	CC(C)Sc1nc2ncnc(N)c2[nH]1
4.2 µg/mL (≈ 13.4 µM)	CCOc1ncccc1C(=O)Nc1ccc2nc(C)sc2c1
> 52.4 µg/mL	Cc1cccc(-c2nsc(SCC(=O)NCC3CCCO3)n2)c1 (stereo not drawn)

solubility kinetic	SMILES
> 51.7 µg/mL	O=C(COC(=O)c1cccnc1Cl)NC1CCCc2ccccc21 (stereo not drawn)
45.8 µg/mL (≈ 130 µM)	O=C1CCCC2=C1C(c1ccccc1)CC(=O)N2c1ccc(F)cc1F (stereo not drawn)
> 48.2 µg/mL	O=C(COc1ncnc2sccc12)Nc1ccc(F)cc1F
> 42.5 µg/mL	CCN1CCN(C(=S)NC(=O)c2cccs2)CC1
> 38.3 µg/mL	O=C1C=C(NC2CCCC2)CC(c2ccccc2)C1 (stereo not drawn)
1 µg/mL (≈ 3.74 µM)	CC(C)c1ccc(C2NC(=O)c3ccccc3O2)cc1 (stereo not drawn)
30.1 µg/mL (≈ 92.2 µM)	Cc1ccc(N2CCN(CC(O)COc3ccccc3)CC2)cc1 (stereo not drawn)
35.8 µg/mL (≈ 117 µM)	CCN(C(=O)c1ccc(Cl)c([N+](=O)[O-])c1)c1ccccc1
> 46 µg/mL	NC(=O)C1CCN(C(=O)CCSCc2ccccc2)CC1
1.6 µg/mL (≈ 4.25 µM)	COc1ccc(-c2cc(C(=O)NC3CCCC3)c3ccccc3n2)cc1OC
6.6 µg/mL (≈ 21.1 µM)	Cc1ccnc(NC(=O)c2ccc3c(c2)NC(=O)C(C)S3)c1 (stereo not drawn)
< 0.7 µg/mL	CCOc1ccccc1NC(=O)c1cc(=O)c2ccccc2o1
1.8 µg/mL (≈ 5.5 µM)	NC(=O)c1cc(-c2ccccc2)nc2ccc(Br)cc12
48.5 µg/mL (≈ 146 µM)	CCCCN(CC(=O)NCc1ccc(F)cc1)C(=O)c1ccco1
> 47.2 µg/mL	CCc1ccc(N2CC(C(=O)N3CCCCCC3)CC2=O)cc1 (stereo not drawn)
> 55.4 µg/mL	O=C(O)c1cccc(S(=O)(=O)Nc2ccc(Oc3ccccc3)cc2)c1
> 44 µg/mL	Cn1ccnc1SCC(=O)Nc1ccc([N+](=O)[O-])cn1
13.2 µg/mL (≈ 30.5 µM)	CC(NC(=O)COC(=O)c1ccc(S(=O)(=O)N2CCOCC2)cc1)c1ccccc1 (stereo not drawn)
< 0.3 µg/mL	O=C(NCc1ccccc1)c1c(O)c2ccccc2[nH]c1=O
1.7 µg/mL (≈ 5.68 µM)	O=C(OCC(=O)N1CCc2ccccc21)c1ccccc1F
14.3 µg/mL (≈ 62.1 µM)	Cn1cccc1C(=O)c1cccc([N+](=O)[O-])c1
> 48.4 µg/mL	Cc1nc(CSc2n[nH]c(=O)n2-c2cccc(F)c2)cs1
> 35.1 µg/mL	O=C(NC(=S)N1CCCC1)c1ccccc1
7.5 µg/mL (≈ 21.7 µM)	NC(=O)COC(=O)c1ccc2c(c1)S(=O)(=O)c1ccccc1C2=O
30.1 µg/mL (≈ 81.5 µM)	Cc1cc(Br)ccc1NC(=O)CSCc1c(C)noc1C

solubility kinetic	SMILES
2 µg/mL (≈ 6.2 µM)	CCOc1ccc(NC(=S)Nc2cccc3ccccc23)cc1
16.1 µg/mL (≈ 37.6 µM)	O=C(COC(=O)C12CC3CC(CC(Br)(C3)C1)C2)Nc1c(F)cccc1F
> 46 µg/mL	O=C(CCNC(=O)c1ccccc1Cl)NCc1ccco1
2.6 µg/mL (≈ 9.05 µM)	O=C(NC1CCCc2ccccc21)c1cc(F)cc(F)c1 (stereo not drawn)
> 46.5 µg/mL	O=C(O)c1ccc(/C=N/Nc2ncc(Cl)cc2Cl)cc1
> 51 µg/mL	O=C(CSc1ncc(C(F)(F)F)cc1Cl)N1CCNC1=O
45.2 µg/mL (≈ 127 µM)	C[C@@H](C(=O)Nc1nc2ccccc2s1)N1C(=O)C2CC=CCC2C1=O (stereo partly drawn)
> 71.9 µg/mL	COc1ccc(NC(=O)CSc2ccc(NC(C)=O)cc2)cc1S(=O)(=O)N1CCOCC1
2.1 µg/mL (≈ 6.24 µM)	CC1CCN(C(=O)CN2C(=O)c3cccc4cccc(c34)C2=O)CC1
19.2 µg/mL (≈ 68 µM)	CN(C/C=C/c1ccccc1[N+](=O)[O-])Cc1ccccc1
> 43.6 µg/mL	COc1ccccc1C(=O)NCCC(=O)N1CCCCC1
37.7 µg/mL (≈ 138 µM)	COc1ccc(C(C)=O)cc1CSc1ccccn1
11.7 µg/mL (≈ 45.1 µM)	Cc1ccc(C(=O)Cn2cc([N+](=O)[O-])nc2C)cc1
> 47.6 µg/mL	CCc1cccc(NC(=O)CCCN2C(=O)NC(C)(C)C2=O)c1
> 31.1 µg/mL	CC(=O)NCC1COc2ccccc2O1 (stereo not drawn)
> 38.7 µg/mL	O=C(c1cc(-c2ccc(O)cc2)on1)N1CCCC1
32.5 µg/mL (≈ 126 µM)	O=C(CNC(=O)c1ccccc1F)c1ccccc1
12.1 µg/mL (≈ 48.1 µM)	COc1cc(C)c(CN2CCSCC2)cc1C
25.3 µg/mL (≈ 101 µM)	O=C(O)Cn1c(-c2ccccc2)cc2ccccc21
> 49 µg/mL	O=C(O)CC1(CC(=O)Nc2ccc3ccccc3n2)CCCCC1
> 48.5 µg/mL	Cc1ccc(N(CCC#N)C(=O)COC(=O)c2ccccn2)cc1
24.7 µg/mL (≈ 148 µM)	CCOC(=O)c1cc(C)[nH]c1C

SMILES	solubility kinetic
Cc1ccc(NS(=O)(=O)c2cc(C(=O)N(C)C3CCN(C)CC3)ccc2Cl)cc1Cl.O=C(O)C(=O)O	> 84.1 µg/mL

— PubChem BioAssay AID1996
